Measurements from patent US20230159532A1, “PARATHYROID HORMONE (PTH) RECEPTOR ANTAGONISTS AND USES THEREOF” (Crinetics Pharmaceuticals, Inc., priority 2021, published 2023).

These compounds were tested against T1, human PTHR1 receptor (Homo sapiens, UniProt Q03431) (assay: Competitive antagonist binding assay for hPTH-R1 (radioactive competition binding, SPA beads)). Settings: human PTHR1 membranes, [125I]-[Nle8,18,Tyr34]-PTH(1-34) 0.2 nM, 90 minutes at room temperature; read-out: hPTHR1 Ki.
T1 construct: purchased Eurofins HTS030M
T1 sequence (Q03431 27-593): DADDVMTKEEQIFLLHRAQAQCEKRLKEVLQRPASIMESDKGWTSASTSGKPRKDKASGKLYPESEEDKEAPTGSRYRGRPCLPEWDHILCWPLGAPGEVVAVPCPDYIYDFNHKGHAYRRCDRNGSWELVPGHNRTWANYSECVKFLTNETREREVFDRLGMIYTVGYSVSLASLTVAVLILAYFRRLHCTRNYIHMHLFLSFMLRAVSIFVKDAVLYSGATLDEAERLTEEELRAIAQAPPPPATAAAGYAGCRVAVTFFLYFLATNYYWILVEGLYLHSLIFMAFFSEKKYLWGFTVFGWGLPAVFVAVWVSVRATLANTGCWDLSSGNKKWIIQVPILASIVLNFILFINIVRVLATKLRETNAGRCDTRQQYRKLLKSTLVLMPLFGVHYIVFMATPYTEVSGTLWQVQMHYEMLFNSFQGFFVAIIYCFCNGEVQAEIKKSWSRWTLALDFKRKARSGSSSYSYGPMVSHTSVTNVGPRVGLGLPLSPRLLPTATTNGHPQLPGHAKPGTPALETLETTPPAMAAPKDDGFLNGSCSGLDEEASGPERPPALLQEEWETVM
Summary of the method: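 Displacement of 0.2 nM radioiodinated [Nle8,18,Tyr34]-PTH(1-34) from membrane-bound human PTHR1 measured by scintillation proximity after 90 min at room temperature. Compounds typically 0-10,000 nM final, pH 7.4 HEPES/Mg/Ca buffer with BSA and detergent. Ki calculated from competition data.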
For `CCN1C(=O)N(c2c(F)cc(NCCN[C@H]3C[C@H](O)C3)cc2F)c2cc(C#N)ccc2-c2cc(F)cnc21` [1-222, 10-{2,6-difluoro-4-[(2-{[(1r,3r)-3-hydroxycyclobutyl]amino}ethyl)amino]phenyl}-8-ethyl-4-fluoro-9-oxo-6,8,10-triazatricyclo[9.4.0.0^2,7]pentadeca-1(11),2(7),3,5,12,14-hexaene-13-carbonitrile], the Ki was < 100 nM.
For `CCN1C(=O)N(c2c(F)cc(NCCNCCO)cc2F)c2cc(Cl)ccc2-c2cc(C#N)ncc21` [3-22, 13-chloro-10-[2,6-difluoro-4-({2-[(2-hydroxyethyl)amino]ethyl}amino)phenyl]-8-ethyl-9-oxo-5,8,10-triazatricyclo[9.4.0.0^2,7]pentadeca-1(11),2(7),3,5,12,14-hexaene-4-carbonitrile], the Ki was < 100 nM.
With `CC(C)N1C(=O)N(c2c(F)cc(NCCNCCO)cc2F)c2cc(Cl)ccc2-c2cc(F)cnc21` [1-106, 13-chloro-10-[2,6-difluoro-4-({2-[(2-hydroxyethyl)amino]ethyl}amino)phenyl]-4-fluoro-8-(propan-2-yl)-6,8,10-triazatricyclo[9.4.0.0^2,7]pentadeca-1(11),2(7),3,5,12,14-hexaen-9-one] the Ki was < 100 nM.
Work on `CCN1C(=O)N(c2c(F)cc(NCCNC3CCOCC3)cc2F)c2cc(Cl)ccc2-c2nc(C#N)ccc21` [3-17, 13-chloro-10-[2,6-difluoro-4-({2-[(oxan-4-yl)amino]ethyl}amino)phenyl]-8-ethyl-9-oxo-3,8,10-triazatricyclo[9.4.0.0^2,7]pentadeca-1(11),2(7),3,5,12,14-hexaene-4-carbonitrile] yielded a Ki of 1000 to 10000 nM.
With `CCN1C(=O)N(c2c(F)cc(N3CCN[C@H](CO)C3)cc2F)c2cc(C#N)ccc2-c2cc(Cl)cnc21` [1-152, 4-chloro-10-{2,6-difluoro-4-[(3S)-3-(hydroxymethyl)piperazin-1-yl]phenyl}-8-ethyl-9-oxo-6,8,10-triazatricyclo[9.4.0.0^2,7]pentadeca-1(11),2(7),3,5,12,14-hexaene-13-carbonitrile] the Ki was 100 to 1000 nM.
In the case of `CCN1C(=O)N(c2c(F)cc(NCCNCCO)cc2F)c2cc(C#N)cc(F)c2-c2cc(F)cnc21` [1-103, 10-[2,6-difluoro-4-({2-[(2-hydroxyethyl)amino]ethyl}amino)phenyl]-8-ethyl-4,15-difluoro-9-oxo-6,8,10-triazatricyclo[9.4.0.0^2,7]pentadeca-1(11),2(7),3,5,12,14-hexaene-13-carbonitrile], the Ki is reported as < 100 nM.
With `CCN1C(=O)N(c2c(F)cc(NCCNC)cc2F)c2cc(Cl)cc(C)c2-c2cccnc21` [1-23, 13-chloro-10-(2,6-difluoro-4-{[2-(methylamino)ethyl]amino}phenyl)-8-ethyl-15-methyl-6,8,10-triazatricyclo[9.4.0.0^2,7]pentadeca-1(11),2(7),3,5,12,14-hexaen-9-one] the Ki was < 100 nM.
`CCN1C(=O)N(c2c(F)cc(NCCN[C@@H](CCSC)C(=O)O)cc2F)c2cc(C#N)ccc2-c2cc(Cl)cnc21` [1-233, (2S)-2-({2-[(4-{4-chloro-13-cyano-8-ethyl-9-oxo-6,8,10-triazatricyclo[9.4.0.0^2,7]pentadeca-1(11),2(7),3,5,12,14-hexaen-10-yl}-3,5-difluorophenyl)amino]ethyl}amino)-4-(methylsulfanyl)butanoic acid] was tested, and the Ki was < 100 nM.
With `CN1C(=O)N(c2c(F)cc(NCCNCCO)cc2F)c2cc(C#N)cc(F)c2-c2cc(F)cnc21` [1-110, 10-[2,6-difluoro-4-({2-[(2-hydroxyethyl)amino]ethyl}amino)phenyl]-4,15-difluoro-8-methyl-9-oxo-6,8,10-triazatricyclo[9.4.0.0^2,7]pentadeca-1(11),2(7),3,5,12,14-hexaene-13-carbonitrile] the Ki was < 100 nM.
In the case of `CN1C(=O)N(c2c(F)cc(NCCNCCO)cc2F)c2cc(C#N)cc(F)c2-c2cc(Cl)cnc21` [1-116, 4-chloro-10-[2,6-difluoro-4-({2-[(2-hydroxyethyl)amino]ethyl}amino)phenyl]-15-fluoro-8-methyl-9-oxo-6,8,10-triazatricyclo[9.4.0.0^2,7]pentadeca-1(11),2(7),3,5,12,14-hexaene-13-carbonitrile], the Ki is reported as < 100 nM.
